Literature values, collected in US20050032782A1, “Treatment of chronic pain associated with drug or radiation therapy” (Cypress Bioscience, Inc., priority 2003, published 2005).

Biological target: NMDA receptor
Settings: reported by Shuto et al.; read-out: IC50 value, NMDA receptor antagonistic properties

CCN(CC)C(=O)C1(c2ccccc2)CC1CN (stereo not shown) [milnacipran]
IC50: ~6.3 µM
